According to patent US9844542B2, “Substituted imidazopyridine and triazolopyridine compounds as negative allosteric modulators of mGluR5” (Vanderbilt University, priority 2013, dated 2017):
Where “and” joins values, the source holds several entries; their conditions need not be identical. Equal values may be shown once.

Each compound was assayed against T1, rat mGluR5 (Rattus norvegicus, UniProt P31424) (assay: mGluR5 calcium mobilization assay (FDSS, Fluo-4) in HEK 293A cells stably expressing rat mGluR5). Conditions: HEK cells transfected with rat mGluR5; antagonism of glutamate EC80 response; ± = standard error of at least three experiments.
T1 construct: expressed in transfected cells
Format: cell-based
Description: Human embryonic kidney (HEK) cells transfected with rat or human mGluR5 were plated in clear bottom assay plates for assay in a Functional Drug Screening System (FDSS). The cells were loaded with a Ca^2+-sensitive fluorescent dye (e.g., Fluo-4), and the plates were washed and placed in the FDSS instrument. Test compound was applied to cells 3 seconds after baseline readings were taken. Cells were incubated with the test compounds for 140 seconds and then stimulated with an EC20 concentration of an mGluR5 agonist (e.g., glutamate, 3,5-dihydroxyphenylglycine, or quisqualate); 60-80 seconds later an EC80 concentration of agonist was added and readings taken for an additional 40 seconds. Data were collected at 1 Hz. […] Concentration response curves were generated using a four parameter logistical equation.
The above described assay was operated in two modes. In the first mode (utilizing a triple add protocol), a range of concentrations of the present compounds were added to cells, followed by two single fixed concentrations of agonist (EC20 followed by EC80). If a compound acted as a potentiator, an EC50 value for potentiation of the EC20 response and a maximum extent of potentiation by the compound at this concentration of agonist was determined by non-linear curve fitting. If a compound acted as an antagonist, an IC50 value for antagonism of the EC80 response and a maximum extent of antagonism by the compound at this concentration of agonist was determined by non-linear curve fitting. In the second mode (utilizing a double add protocol), several fixed concentrations of the present compounds were added to various wells on a plate, followed by a range of concentrations of agonist for each concentration of present compound; the EC50 values for the agonist at each concentration of compound were determined by nonlinear curve fitting. A decrease in the EC50 value of the agonist with increasing concentrations of the present compounds (a leftward shift of the agonist concentration-response curve) is an indication of the degree of mGluR5 positive allosteric modulation at a given concentration of the present compound. An increase in the EC50 value of the agonist with increasing concentrations of the present compounds (a rightward shift of the agonist concentration response curve) is an indication of the degree of mGluR5 antagonism at a given concentration of the present compound. The second mode also indicates whether the present compounds also affect the maximum response to mGluR5 to agonists.
The mGluR5 activity was determined using the calcium mobilization assays in human embryonic kidney cells as described herein below, wherein the human embryonic kidney cells were transfected with rat mGluR5. The mGluR5 activity data for some compounds are shown as the average of at least three experiments with the standard error in these cases. If no error is indicated for the mGluR5 activity, the values given represent the results from a single experiment or the average of two experiments. The compounds in Table 1 were synthesized with methods identical or analogous to those shown herein. The requisite starting materials were commercially available, described in the literature, or readily synthesized by one skilled in the art of organic synthesis.
GluMax is the amplitude of response in the presence of 30 μM test compound as a percentage of maximal response (100 μM glutamate). Partial antagonists display concentration-response curves (CRCs) that plateau above 10%.
The preparation of rat mGluR5 stable cell-lines is as previously described (e.g. see Romano et al. J Biol. Chem. 1996 Nov. 8; 271(45):28612-6).

T1 sequence (P31424 21-1171 isoform P31424-2 limits assumed): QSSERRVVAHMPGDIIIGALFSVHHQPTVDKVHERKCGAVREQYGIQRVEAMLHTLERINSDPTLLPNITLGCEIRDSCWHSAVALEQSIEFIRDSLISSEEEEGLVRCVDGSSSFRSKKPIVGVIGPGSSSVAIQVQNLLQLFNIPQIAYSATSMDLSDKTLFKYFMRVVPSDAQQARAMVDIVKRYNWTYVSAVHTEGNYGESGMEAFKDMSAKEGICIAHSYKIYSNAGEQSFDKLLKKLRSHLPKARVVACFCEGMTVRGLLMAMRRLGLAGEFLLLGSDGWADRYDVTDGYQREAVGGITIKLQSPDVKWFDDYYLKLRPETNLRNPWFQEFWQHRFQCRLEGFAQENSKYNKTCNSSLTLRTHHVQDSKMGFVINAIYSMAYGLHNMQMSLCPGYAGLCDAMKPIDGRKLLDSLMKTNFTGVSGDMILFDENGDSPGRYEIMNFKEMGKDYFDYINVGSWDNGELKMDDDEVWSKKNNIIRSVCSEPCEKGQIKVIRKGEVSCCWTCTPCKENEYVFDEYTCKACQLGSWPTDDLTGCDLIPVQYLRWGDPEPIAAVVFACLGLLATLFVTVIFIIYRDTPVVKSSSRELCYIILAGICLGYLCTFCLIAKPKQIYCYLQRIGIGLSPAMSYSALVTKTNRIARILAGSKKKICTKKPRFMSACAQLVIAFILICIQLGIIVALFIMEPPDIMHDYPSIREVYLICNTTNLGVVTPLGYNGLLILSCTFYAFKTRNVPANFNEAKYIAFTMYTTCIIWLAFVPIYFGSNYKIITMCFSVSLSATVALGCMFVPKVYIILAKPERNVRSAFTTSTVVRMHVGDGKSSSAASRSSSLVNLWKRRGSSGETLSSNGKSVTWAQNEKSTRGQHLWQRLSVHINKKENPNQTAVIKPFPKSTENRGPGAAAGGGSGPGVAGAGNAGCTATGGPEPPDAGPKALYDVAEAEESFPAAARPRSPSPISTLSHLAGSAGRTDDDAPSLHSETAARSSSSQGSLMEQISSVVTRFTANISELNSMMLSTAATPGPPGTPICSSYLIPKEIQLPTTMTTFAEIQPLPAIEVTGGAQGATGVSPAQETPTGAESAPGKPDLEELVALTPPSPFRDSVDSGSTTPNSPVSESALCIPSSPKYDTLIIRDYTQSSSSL

Row | SMILES | IC50
1 | Cc1nc(NC(=O)c2cc(Oc3cncnc3)cn3ncnc23)sc1F | 150 nM
2 | COc1ccc(NC(=O)c2cc(Oc3cncc(C)c3)cn3ncnc23)nc1 | 275 nM
3 | CCc1cccc(NC(=O)c2cc(Oc3cncc(OC)c3)cn3cnnc23)n1 [drawing 282] | 1420 nM
4 | COc1cncc(Oc2cc(C(=O)Nc3cccc(OC)n3)c3ncnn3c2)c1 [drawing 289] | 416 nM
5 | CCc1cccc(NC(=O)c2cc(Oc3cncnc3)cn3ncnc23)n1 | 306 nM
6 | COc1cncc(Oc2cc(C(=O)Nc3cccc(OC)n3)c3nccn3c2)c1 | 268 nM
7 | COc1cccc(NC(=O)c2cc(Oc3cncc(Cl)c3)cn3cnnc23)n1 | 1360 nM
8 | CCc1cccc(NC(=O)c2cc(Oc3cncc(OC)c3)cn3ccnc23)n1 | 377 nM
9 | O=C(Nc1ccc(F)cn1)c1cc(Oc2cc(F)cnc2F)cn2ncnc12 | 138 nM
10 | Cc1ccc(NC(=O)c2cc(Oc3cnc(C)nc3)cn3cnnc23)nc1 | > 10000 nM
11 | N#Cc1cncc(Oc2cc(C(=O)Nc3ccc(F)cn3)c3nncn3c2)c1 | 1430 nM
12 | Cc1ncc(Oc2cc(C(=O)Nc3ccccn3)c3nccn3c2)cn1 | 3310 nM
13 | Cc1cccc(NC(=O)c2cc(Oc3cncc(Cl)c3)cn3ncnc23)n1 | 130 nM
14 | O=C(Nc1ccc(F)cn1)c1cc(Oc2cncnc2)cn2ncnc12 [drawing 195] | 100 nM and 75 nM
15 | CCc1cccc(NC(=O)c2cc(Oc3cnc(C)nc3)cn3cnnc23)n1 | > 10000 nM
16 | Cc1nc(NC(=O)c2cc(Oc3cncnc3)cn3ncnc23)ccc1F | 296 nM
17 | Cc1ncc(Oc2cc(C(=O)Nc3cccc(F)n3)c3nncn3c2)cn1 | > 10000 nM
18 | Cc1cccc(NC(=O)c2cc(Oc3cncc(F)c3)cn3nc(C)nc23)n1 | 199 nM
19 | Cc1csc(NC(=O)c2cc(Oc3cncc(Cl)c3)cn3cnnc23)n1 | 666 nM
20 | Cc1ccc(NC(=O)c2cc(Oc3cncc(F)c3)cn3nc(C)nc23)nc1 | 468 nM
21 | COc1cncc(Oc2cc(C(=O)Nc3cccc(C)n3)c3ncnn3c2)c1 | 175 nM
22 | CCc1cccc(NC(=O)c2cc(Oc3cncc(OC)c3)cn3cnnc23)n1 [drawing 287] | > 10000 nM

More lines, now with the values ahead:

Row | IC50 | SMILES
23 | 92 nM | Cc1nc(NC(=O)c2cc(Oc3cncc(F)c3)cn3ncnc23)ccc1F
24 | 25 nM | O=C(Nc1ccccn1)c1cc(Oc2cncc(F)c2)cn2ncnc12
25 | 53 nM | Cc1ccc(NC(=O)c2cc(Oc3cncc(F)c3)cn3ncnc23)nc1
26 | 33 nM | O=C(Nc1ccccn1)c1cc(Oc2cncc(Cl)c2)cn2ccnc12
27 | 50 nM | Cc1ccc(NC(=O)c2cc(Oc3cccnc3)cn3ncnc23)nc1
28 | 94 nM | COc1cccc(NC(=O)c2cc(Oc3cncc(F)c3)cn3ccnc23)n1
29 | 26 nM | [2H]c1nc(NC(=O)c2cc(Oc3cccnc3)cn3ncnc23)c([2H])c([2H])c1[2H]
30 | 28 ± 7 nM | O=C(Nc1ccc(F)cn1)c1cc(Oc2cncc(F)c2)cn2cnnc12 [drawing 160]
31 | 36 nM | O=C(Nc1ccccn1)c1cc(Oc2cncc(F)c2F)cn2ncnc12
32 | 44 nM | O=C(Nc1ccccn1)c1cc(Oc2cncc(O)c2)cn2ncnc12
33 | 99 nM | COc1cncc(Oc2cc(C(=O)Nc3ccccn3)c3ncnn3c2)c1
34 | 128 nM | Cc1cncc(Oc2cc(C(=O)Nc3nc(C)cs3)c3ncnn3c2)c1
35 | 119 nM | Cc1csc(NC(=O)c2cc(Oc3cnc(F)c(F)c3)cn3ncnc23)n1
36 | 117 nM | O=C(Nc1cccc(F)n1)c1cc(Oc2cncnc2)cn2ncnc12
37 | 40 nM | COc1cncc(Oc2cc(C(=O)Nc3ccccn3)c3nccn3c2)c1
38 | 85 nM | COc1ccc(NC(=O)c2cc(Oc3cncc(OC)c3)cn3ccnc23)nc1
39 | 101 nM | CCc1cccc(NC(=O)c2cc(Oc3cncc(F)c3)cn3ncnc23)n1
40 | 89 nM | Cc1cncc(Oc2cc(C(=O)Nc3cccc(F)n3)c3ncnn3c2)c1
41 | 58 nM | Cc1cccc(NC(=O)c2cc(Oc3cncc(F)c3)cn3ncnc23)n1
42 | 51 nM | N#Cc1cncc(Oc2cc(C(=O)Nc3ccc(F)cn3)c3nccn3c2)c1
43 | 39 nM | COc1ccc(NC(=O)c2cc(Oc3cncc(F)c3)cn3ccnc23)nc1
44 | 94 nM | Cc1cncc(Oc2cc(C(=O)Nc3ccc(F)cn3)c3ncnn3c2)c1
